# Test results from patent US20230017786A1, “DEXTR[…] A DISEASE-MODIFYING TREATMENT FOR NEUROPSYCHIATRIC DISORDERS AND DISEASES” (priority 2020, published 2023).
# Where “and” joins values, the source holds several entries; their conditions need not be identical. Equal values may be shown once. Where a name gives a salt, the structure may show the parent alone.
# Tests used:
# Assay type in all cases: cell-based
# [1] = system: diheteromeric human recombinant NMDAR containing GluN1 plus GluN2A, GluN2B, GluN2C or GluN2D; assay: FLIPR calcium assay, statements for all four NMDAR subtypes together; settings: 6 test item concentrations
# From the text: An operational equation for allosteric modulators (Leach K, Sexton P M and Christopoulos A, Allosteric GPCR modulators: taking advantage of permissive receptor pharmacology, Trends Pharmacol. Sci. 28: 382-389, 2007; Kenakin T P, Overview of receptor interaction of agonists and antagonists, Curr. Protoc. Pharmacol. Chapter 4: Unit 4.1, 2008, Kenakin T P, Biased signalling and allosteric machines: new vistas and challenges for drug discovery, Br. J. Pharmacol. 165: 1659-1669, 2012) was created in Prism 8 (GraphPad) software to estimate KB and a parameters for every test item, with the assumption that, as a pore blocker, every test item would be able to produce a compete blockade of agonist response, at sufficiently high concentration: […]
# [2] = biological target: T1, human NMDA receptor GluN1-GluN2B (Homo sapiens, UniProt Q05586+Q13224); assay: cell-based
# T1 construct: expressed in transfected cells; host or cells: CHO
# Procedure: (§1) FLIPR determination of intracellular calcium level was used as a read-out for NMDAR activation.
# (§2) 400× compound plate was stored at −20° C. until FLIPR experimental day.
# (§3) 4× compound plate was generated from 400× compound plate by addition of up to 30 μl/well of compound buffer on FLIPR experimental day.
# (§4) A FLIPR system was used to monitor intracellular calcium level in NMDAR cell lines, pre-loaded for 1 hour with Fluo-4, and then washed with assay buffer.
# (§5) Y=Bottom+(Top−Bottom)/(1+10^((LogEC50−Log[A])*HillSlope))
# [3] = biological target: T2, human NMDA receptor GluN1-GluN2C (Homo sapiens, UniProt Q05586+Q14957); assay: FLIPR calcium assay, test item effect on L-glutamate CRC, GluN1-GluN2C-CHO
# T2 construct: expressed in transfected cells; host or cells: CHO
# T2 sequence (Q14957 20-1233, other chains not shown): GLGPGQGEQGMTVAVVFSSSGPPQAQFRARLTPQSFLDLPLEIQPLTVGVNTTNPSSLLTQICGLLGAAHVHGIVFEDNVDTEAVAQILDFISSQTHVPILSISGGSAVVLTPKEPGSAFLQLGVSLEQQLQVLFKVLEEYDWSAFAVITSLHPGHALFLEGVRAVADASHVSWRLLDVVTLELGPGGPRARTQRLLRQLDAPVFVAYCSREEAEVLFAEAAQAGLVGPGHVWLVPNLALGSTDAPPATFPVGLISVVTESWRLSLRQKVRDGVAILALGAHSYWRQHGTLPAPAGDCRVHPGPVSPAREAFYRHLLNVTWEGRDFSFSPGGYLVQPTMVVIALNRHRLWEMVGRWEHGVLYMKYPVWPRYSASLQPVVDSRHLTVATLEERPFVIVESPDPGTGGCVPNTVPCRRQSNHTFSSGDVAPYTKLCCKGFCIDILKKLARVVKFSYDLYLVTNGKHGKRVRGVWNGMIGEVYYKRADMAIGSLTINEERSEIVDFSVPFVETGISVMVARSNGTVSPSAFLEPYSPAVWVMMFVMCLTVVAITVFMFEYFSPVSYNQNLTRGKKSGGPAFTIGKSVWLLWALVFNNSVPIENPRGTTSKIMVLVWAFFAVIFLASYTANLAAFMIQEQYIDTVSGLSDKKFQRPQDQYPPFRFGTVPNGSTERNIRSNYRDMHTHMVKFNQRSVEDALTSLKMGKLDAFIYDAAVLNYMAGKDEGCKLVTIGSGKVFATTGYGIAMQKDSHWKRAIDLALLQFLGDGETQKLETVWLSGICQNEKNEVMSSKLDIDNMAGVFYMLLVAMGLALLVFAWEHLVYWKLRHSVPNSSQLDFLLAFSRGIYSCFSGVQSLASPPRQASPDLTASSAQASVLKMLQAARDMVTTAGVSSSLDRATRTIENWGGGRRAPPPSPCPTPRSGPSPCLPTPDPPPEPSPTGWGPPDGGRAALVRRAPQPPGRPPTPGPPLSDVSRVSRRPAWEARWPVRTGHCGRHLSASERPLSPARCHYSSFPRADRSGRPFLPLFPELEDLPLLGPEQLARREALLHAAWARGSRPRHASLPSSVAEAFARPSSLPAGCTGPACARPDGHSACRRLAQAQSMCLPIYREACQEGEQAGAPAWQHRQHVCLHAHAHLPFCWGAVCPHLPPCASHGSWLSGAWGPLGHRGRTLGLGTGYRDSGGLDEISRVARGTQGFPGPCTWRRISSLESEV
# Procedure: as §1, §2, §3, §4, §5
# [4] = biological target: T3, human NMDA receptor GluN1-GluN2D (Homo sapiens, UniProt O15399+Q05586); assay: FLIPR calcium assay, test item effect on L-glutamate CRC, GluN1-GluN2D-CHO
# T3 construct: expressed in transfected cells; host or cells: CHO
# T3 sequence (O15399 28-1336, other chains not shown): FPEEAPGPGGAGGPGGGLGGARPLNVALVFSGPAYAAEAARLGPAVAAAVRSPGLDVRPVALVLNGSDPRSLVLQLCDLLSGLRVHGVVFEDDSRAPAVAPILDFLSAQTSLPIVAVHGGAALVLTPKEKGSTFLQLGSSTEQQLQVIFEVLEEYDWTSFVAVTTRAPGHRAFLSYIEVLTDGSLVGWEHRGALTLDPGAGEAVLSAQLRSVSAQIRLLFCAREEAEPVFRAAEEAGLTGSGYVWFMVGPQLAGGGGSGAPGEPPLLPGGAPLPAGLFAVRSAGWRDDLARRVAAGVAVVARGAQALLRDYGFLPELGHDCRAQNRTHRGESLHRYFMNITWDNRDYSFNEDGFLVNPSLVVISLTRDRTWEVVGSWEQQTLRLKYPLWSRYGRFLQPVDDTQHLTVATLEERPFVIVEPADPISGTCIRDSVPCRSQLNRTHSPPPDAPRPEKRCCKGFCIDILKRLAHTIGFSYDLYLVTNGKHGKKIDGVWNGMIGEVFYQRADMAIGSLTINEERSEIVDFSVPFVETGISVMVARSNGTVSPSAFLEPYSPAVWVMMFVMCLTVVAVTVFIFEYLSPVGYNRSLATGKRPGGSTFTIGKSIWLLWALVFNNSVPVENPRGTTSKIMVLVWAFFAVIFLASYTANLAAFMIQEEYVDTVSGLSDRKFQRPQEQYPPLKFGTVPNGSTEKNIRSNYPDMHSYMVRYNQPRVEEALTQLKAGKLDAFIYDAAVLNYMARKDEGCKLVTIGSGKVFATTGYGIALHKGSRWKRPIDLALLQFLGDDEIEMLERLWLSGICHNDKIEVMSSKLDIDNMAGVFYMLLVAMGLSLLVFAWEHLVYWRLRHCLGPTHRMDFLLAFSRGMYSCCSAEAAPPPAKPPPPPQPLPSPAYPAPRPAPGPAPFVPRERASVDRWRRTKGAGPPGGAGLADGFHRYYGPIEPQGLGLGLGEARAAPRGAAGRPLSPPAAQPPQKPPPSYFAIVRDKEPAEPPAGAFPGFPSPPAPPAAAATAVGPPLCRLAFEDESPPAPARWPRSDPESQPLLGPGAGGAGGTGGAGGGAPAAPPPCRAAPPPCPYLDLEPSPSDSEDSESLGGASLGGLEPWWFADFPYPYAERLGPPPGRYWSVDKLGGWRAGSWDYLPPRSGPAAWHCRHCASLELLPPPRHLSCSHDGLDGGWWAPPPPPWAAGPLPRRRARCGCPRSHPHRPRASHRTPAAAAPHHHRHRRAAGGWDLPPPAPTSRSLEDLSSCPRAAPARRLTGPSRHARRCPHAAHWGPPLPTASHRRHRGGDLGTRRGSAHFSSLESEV
# Procedure: as §1, §2, §3, §4, §5
# [5] = biological target: T4, human NMDA receptor GluN1-GluN2A (Homo sapiens, UniProt Q05586+Q12879); assay: FLIPR calcium assay, test item effect on L-glutamate CRC, GluN1-GluN2A-CHO
# T4 construct: expressed in transfected cells; host or cells: CHO
# T4 sequence (Q12879 23-1464, other chains not shown): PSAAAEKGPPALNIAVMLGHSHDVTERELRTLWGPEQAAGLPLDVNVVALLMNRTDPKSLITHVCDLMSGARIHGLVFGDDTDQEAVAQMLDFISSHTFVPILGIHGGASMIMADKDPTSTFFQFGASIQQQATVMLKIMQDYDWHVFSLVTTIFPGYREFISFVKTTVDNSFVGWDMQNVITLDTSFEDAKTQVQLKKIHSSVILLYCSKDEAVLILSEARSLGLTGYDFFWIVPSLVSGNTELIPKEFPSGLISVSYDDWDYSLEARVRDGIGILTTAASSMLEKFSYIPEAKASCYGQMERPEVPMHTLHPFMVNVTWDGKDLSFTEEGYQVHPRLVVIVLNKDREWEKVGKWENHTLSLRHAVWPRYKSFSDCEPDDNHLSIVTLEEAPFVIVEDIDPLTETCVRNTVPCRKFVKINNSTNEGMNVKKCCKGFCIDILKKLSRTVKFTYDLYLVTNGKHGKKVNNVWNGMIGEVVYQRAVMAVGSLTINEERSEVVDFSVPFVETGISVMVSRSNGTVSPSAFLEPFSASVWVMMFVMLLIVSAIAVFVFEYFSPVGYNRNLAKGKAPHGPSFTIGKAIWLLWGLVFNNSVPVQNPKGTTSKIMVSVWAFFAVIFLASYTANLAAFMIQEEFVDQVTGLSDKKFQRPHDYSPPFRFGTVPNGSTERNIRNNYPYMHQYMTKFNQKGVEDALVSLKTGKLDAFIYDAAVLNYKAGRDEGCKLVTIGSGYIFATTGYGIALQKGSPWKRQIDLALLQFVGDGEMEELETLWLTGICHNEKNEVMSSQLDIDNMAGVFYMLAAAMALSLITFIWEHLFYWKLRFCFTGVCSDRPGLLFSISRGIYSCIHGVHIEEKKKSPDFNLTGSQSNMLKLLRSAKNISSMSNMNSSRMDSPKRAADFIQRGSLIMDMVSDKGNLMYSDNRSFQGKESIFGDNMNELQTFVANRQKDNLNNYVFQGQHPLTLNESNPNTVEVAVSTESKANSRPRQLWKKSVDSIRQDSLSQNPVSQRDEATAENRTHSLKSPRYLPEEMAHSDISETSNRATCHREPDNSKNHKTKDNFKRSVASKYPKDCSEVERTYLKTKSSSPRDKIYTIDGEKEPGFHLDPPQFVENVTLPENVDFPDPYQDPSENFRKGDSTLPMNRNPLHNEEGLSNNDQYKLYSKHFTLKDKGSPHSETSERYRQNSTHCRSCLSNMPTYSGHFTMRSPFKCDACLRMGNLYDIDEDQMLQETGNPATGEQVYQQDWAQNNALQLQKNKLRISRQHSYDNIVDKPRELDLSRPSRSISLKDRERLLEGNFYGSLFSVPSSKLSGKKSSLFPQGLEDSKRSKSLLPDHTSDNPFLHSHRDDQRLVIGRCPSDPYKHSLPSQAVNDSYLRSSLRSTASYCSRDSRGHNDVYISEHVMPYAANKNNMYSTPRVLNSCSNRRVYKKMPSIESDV
# Procedure: as §1, §2, §3, §4, §5
# [6] = operational analysis for allosteric modulators
smiles,measurement,setting,value
"CC12CC3CC(C)(C1)CC(N)(C3)C2 [Memantine, memantine hydrochloride]",profile on L-glutamate CRC,[1],insurmountable profile
same,"α, estimated cooperativity term",[2],0.094
same,L-glutamate CRC HillSlope,[2]; hydrochloride,2.1 and 1.5 and 1.1 and 1.7 and 1.4
same,"α, estimated cooperativity term",[3]; [6],0.10
same,L-glutamate CRC Bottom,[3]; with test item 49 nM,2.2
same,L-glutamate CRC HillSlope,[3]; with test item 49 nM,1.4
same,L-glutamate CRC LogEC50,[3]; with test item 49 nM,−6.8
same,L-glutamate CRC Top,[3]; with test item 49 nM,92
same,L-glutamate CRC Bottom,[3]; with test item 195 nM,2.0
same,L-glutamate CRC HillSlope,[3]; with test item 195 nM,1.5
same,L-glutamate CRC LogEC50,[3]; with test item 195 nM,−6.9
same,L-glutamate CRC Top,[3]; with test item 195 nM,85
same,L-glutamate CRC Bottom,[3]; with test item 781 nM,0.92
same,L-glutamate CRC HillSlope,[3]; with test item 781 nM,1.4
same,L-glutamate CRC Top,[3]; with test item 781 nM,76
same,L-glutamate CRC Bottom,[3]; with test item 3.1 μM,1.3
same,L-glutamate CRC HillSlope,[3]; with test item 3.1 μM,1.2
same,L-glutamate CRC LogEC50,[3]; with test item 3.1 μM,−6.5
same,L-glutamate CRC Top,[3]; with test item 3.1 μM,49
same,L-glutamate CRC Bottom,[3]; with test item 12.5 μM,2.5
same,L-glutamate CRC HillSlope,[3]; with test item 12.5 μM,1.1
same,L-glutamate CRC LogEC50,[3]; with test item 12.5 μM,−6.4
same,L-glutamate CRC Top,[3]; with test item 12.5 μM,20
same,L-glutamate CRC Bottom,[3]; with test item 50 μM,7.4
same,L-glutamate CRC HillSlope,[3]; with test item 50 μM,6.1
same,L-glutamate CRC LogEC50,[3]; with test item 50 μM,−6.3
same,L-glutamate CRC Top,[3]; with test item 50 μM,11
same,"α, estimated cooperativity term",[4]; [6],0.13
same,L-glutamate CRC Bottom,[4]; with test item 49 nM,5.1
same,L-glutamate CRC HillSlope,[4]; with test item 49 nM,1.4
same,L-glutamate CRC LogEC50,[4]; with test item 49 nM,−7.3
same,L-glutamate CRC Top,[4]; with test item 49 nM,94
same,L-glutamate CRC Bottom,[4]; with test item 195 nM,−0.19
same,L-glutamate CRC HillSlope,[4]; with test item 195 nM,1.3
same,L-glutamate CRC LogEC50,[4]; with test item 195 nM,−7.3
same,L-glutamate CRC Top,[4]; with test item 195 nM,89
same,L-glutamate CRC Bottom,[4]; with test item 781 nM,1.1
same,L-glutamate CRC HillSlope,[4]; with test item 781 nM,1.4
same,L-glutamate CRC LogEC50,[4]; with test item 781 nM,−7.2
same,L-glutamate CRC Top,[4]; with test item 781 nM,87
same,L-glutamate CRC Bottom,[4]; with test item 3.1 μM,−1.3
same,L-glutamate CRC HillSlope,[4]; with test item 3.1 μM,1.3
same,L-glutamate CRC LogEC50,[4]; with test item 3.1 μM,−7.1
same,L-glutamate CRC Top,[4]; with test item 3.1 μM,59
same,L-glutamate CRC Bottom,[4]; with test item 12.5 μM,1.4
same,L-glutamate CRC HillSlope,[4]; with test item 12.5 μM,1.5
same,L-glutamate CRC LogEC50,[4]; with test item 12.5 μM,−6.7
same,L-glutamate CRC Top,[4]; with test item 12.5 μM,26
same,L-glutamate CRC Bottom,[4]; with test item 50 μM,−97133
same,L-glutamate CRC HillSlope,[4]; with test item 50 μM,0.14
same,L-glutamate CRC LogEC50,[4]; with test item 50 μM,−37
same,L-glutamate CRC Top,[4]; with test item 50 μM,19
same,"α, estimated cooperativity term",[5]; [6],0.15
same,L-glutamate CRC Bottom,[5]; with test item 49 nM,0.84
same,L-glutamate CRC HillSlope,[5]; with test item 49 nM,1.1
same,L-glutamate CRC LogEC50,[5]; with test item 49 nM,−6.6
same,L-glutamate CRC Top,[5]; with test item 49 nM,95
same,L-glutamate CRC Bottom,[5]; with test item 195 nM,1.3
same,L-glutamate CRC HillSlope,[5]; with test item 195 nM,1.2
same,L-glutamate CRC LogEC50,[5]; with test item 195 nM,−6.5
same,L-glutamate CRC Top,[5]; with test item 195 nM,92
same,L-glutamate CRC Bottom,[5]; with test item 781 nM,1.1
same,L-glutamate CRC HillSlope,[5]; with test item 781 nM,1.2
same,L-glutamate CRC LogEC50,[5]; with test item 781 nM,−6.3
same,L-glutamate CRC Top,[5]; with test item 781 nM,96
same,L-glutamate CRC Bottom,[5]; with test item 3.1 μM,−0.58
same,L-glutamate CRC HillSlope,[5]; with test item 3.1 μM,1.1
same,L-glutamate CRC LogEC50,[5]; with test item 3.1 μM,−6.4
same,L-glutamate CRC Top,[5]; with test item 3.1 μM,83
same,L-glutamate CRC Bottom,[5]; with test item 12.5 μM,−0.14
same,L-glutamate CRC HillSlope,[5]; with test item 12.5 μM,1.3
same,L-glutamate CRC LogEC50,[5]; with test item 12.5 μM,−6.3
same,L-glutamate CRC Top,[5]; with test item 12.5 μM,68
same,L-glutamate CRC Bottom,[5]; with test item 50 μM,1.5
same,L-glutamate CRC HillSlope,[5]; with test item 50 μM,1.6
same,L-glutamate CRC LogEC50,[5]; with test item 50 μM,−6.1
same,L-glutamate CRC Top,[5]; with test item 50 μM,36
